{"source": "patent US10844018B2", "about": "“Pyridoxine derivative for treatment of epilepsy” (AO “TATKHIMFARMPREPARATY”, priority 2017, dated 2020)", "key": {"mice [1]": {"test_system": "mice", "conditions": "intraperitoneal administration; cited from earlier work"}, "mice [2]": {"test_system": "mice", "conditions": "cited from earlier work"}, "[3]": {"experiment": "Acute toxicity in mice with intraperitoneal administration (compound 1)", "conditions": "both sexes, CD-1 (ICR), mouse, in vivo, ip, printed 'in rats', study in CD-1 mice", "method": "The study was performed on mice of the CD-1 (ICR) line (6-8 weeks, weight not less than 18 g) of both sexes. A single intraperitoneal injection of compound 1 was used at doses of 1000 mg/kg and 2000 mg/kg in a volume of 1 ml per 40 g of mouse body mass using an insulin syringe. The volume of administration was calculated individually for each animal, based on the body mass recorded immediately before the introduction of the substance.\nTo prepare a dose of 2000 mg/kg for administration to mice, a portion of 800 mg of compound 1 in a polystyrene boat on a Vibra scale (Shinko Denshi, Japan) was weighed, transferred to a volumetric flask of accuracy class A per 10 ml of volume, dissolved in physiological saline and adjusted to the mark. The solution was filtered with 0.22 μm syringe nozzles (Jet Biofil). […]\n(§1) Animals were clinically examined individually after administration for 30 minutes, then at least once per hour for 4 hours, then daily once a day for 14 days. Body mass was recorded immediately before the administration of the preparation to calculate the volume of administration, then once every two days."}, "[4]": {"experiment": "Acute toxicity in mice with oral administration (compound 1)", "conditions": "female, CD-1 (ICR), mouse, in vivo, 5000 mg/kg, printed 'in rats', study in CD-1 mice", "method": "The study was performed on mice of the CD-1 (ICR) line (6-8 weeks, weight not less than 18 g, females). Two-fold intragastric (oral) administration of compound 1 in a volume of not more than 0.5 ml/30 g of body weight of the mouse using a gastric tube was used.\nThe introduction was carried out to animals deprived of food (for a period of not less than 8 hours) with free access to water. The volume of administration was calculated individually for each animal, based on the body mass recorded immediately before the introduction of the substance. Access to water and feed was renewed one hour after administration.\nTo prepare a dose of 5000 mg/kg for administration to mice, a portion of 1.5 g of compound 1 in a polystyrene boat on a Vibra scale (Shinko Denshi, Japan) was weighed, transferred to a volumetric flask of accuracy class A per 10 ml of volume, dissolved in distilled water and adjusted to the mark. Due to the insufficient solubility of compound 1, another 10 ml of distilled water is added to the resulting volume of the solution.\nas §1"}, "[5]": {"test_system": "penicillin rat epilepsy model (high-amplitude electric discharges, HAED)", "experiment": "Penicillin model of epilepsy: effect on the electrical activity of the brain", "type": "in vivo", "method": "Experiments were carried out on male Wistar rats with a body weight of 180-250 g. Under isoflurane anesthesia (1.5%), surgical preparation for the experiment is performed. Urethane ([…]) is used for anesthesia during the experiment. Next, the animal is fixed in a stereotactic installation. 2×2 mm holes are drilled in the skulls of animals over symmetrical areas of the sensorimotor cortex of the brain and a 16-channel silicon-based probe (Neuronexus) is installed with a step of 100 μm between the recording electrodes to divert electrical activity from these areas. A silver chloride electrode, which serves as a combined ground electrode and a reference electrode, is introduced into the cerebellum or the visual cortex to a depth of 2-3 mm. To create a focus of epileptic activity in parallel to the somatosensory zones, 2×2 mm holes are drilled in the area of the visual cortex, into which 10 μl of a solution of sodium salt of benzylpenicillin are applied at a concentration of 40,000 IU/ml. […] The amplitude-frequency characteristics of epileptiform activity are evaluated. […] For statistical processing of experimental data, statistical programs Origin 8.5 and IBM SPSS Statistics are used. The significance of differences between populations is evaluated by the Mann-Whitney U-test. […] Their presence, frequency and amplitude are characteristic indicators of brain epileptic activity."}, "[6]": {"test_system": "corazol rat epilepsy model (convulsions caused by corazol)", "experiment": "Corazol model of epilepsy: development of seizures", "type": "in vivo", "conditions": "rats", "method": "Experiments were carried out on male Wistar rats with a body weight of 180-250 g.\nCorazol at a dose of 80 mg/kg is administered subcutaneously in the cervical area of the back.\nThe intensity of the development of a convulsive seizure was studied on a 6-point scale: • 0—lack of convulsive activity; • 1—hyperkinesia; • 2—trembling, twitching, excessive grooming, stereotypical movements; • 3—clonic convulsions of the front legs with lifting on the hind legs; • 4—pronounced tonic-clonic convulsions, the fall of the animal to the side, the presence of a phase of tonic extensia; • 5—repeated tonic-clonic convulsions, loss of posture; • 6—complete tonic attack with apnea, death of the animal.\nTo study the effect of the claimed compound 1 on the development of convulsions caused by corazol, compound 1 is dissolved in physiological saline and administered as follows: • at doses of 25 mg/kg, 100 mg/kg intraperitoneally (ip) 30 minutes before the induction of convulsions with corazol; • at doses of 100 mg/kg, 200 mg/kg, 250 mg/kg intragastrically 1 hour before the induction of convulsions with corazol.\nThe development of convulsive disorder is assessed by the following indicators: • time before the onset of seizures (min); • duration of seizures (sec.); • intensity of seizures on a 6-point scale; • number of animals with repeated convulsions; • number of dead animals in the group.\nFor statistical processing of experimental data, statistical programs Origin 8.5 and IBM SPSS Statistics are used.\nThe significance of differences between populations is evaluated by the Mann-Whitney U-test."}, "rats [7]": {"test_system": "rats", "conditions": "intravenous injection; cited from earlier work"}, "rats [8]": {"test_system": "rats", "conditions": "oral administration; cited from earlier work"}, "mice [9]": {"test_system": "mice", "conditions": "intravenous injection; cited from earlier work"}}, "note": "Entries after “also recorded” stand apart in the source; their conditions may differ. Read-outs that look alike come from different tables or passages of the source."}
{"smiles": "NC(=O)N1c2ccccc2C=Cc2ccccc21", "note": "[carbamazepine]", "values": [{"measurement": "LD50", "setting": "mice [1]", "result": 114, "unit": "mg/kg"}, {"measurement": "LD50", "setting": "mice [2]; mice, oral administration", "result": 529, "unit": "mg/kg"}]}
{"smiles": "Cc1nc(CS(=O)(=O)O)c(CO)c(CO)c1O", "note": "[compound 1, (5-hydroxy-3,4-bis (hydroxymethyl)-6-methylpyridin-2-yl) methanesulfonic acid]", "values": [{"measurement": "LD50 at 14 days", "setting": "[3]", "result": "> 2000", "unit": "mg/kg"}, {"measurement": "LD50 at 14 days", "setting": "[4]", "result": "> 5000", "unit": "mg/kg"}, {"measurement": "antiepileptic effect compared with sodium valproate", "setting": "[5]; compound 1 25-100 mg/kg against sodium valproate 600 mg/kg, ip, penicillin model", "result": "6-24 times"}, {"measurement": "suppression of HAED (epileptic electrical activity of the brain)", "setting": "[5]; compound 1 at 25, 50, 100 mg/kg ip, given 30 min after penicillin, 60 minutes after administration, rats", "result": "completely suppressing HAED; also recorded: completely suppresses the epileptic electrical activity of the brain"}, {"measurement": "amplitude and frequency of HAED", "setting": "[5]; compound 1 at 25, 50, 100 mg/kg ip, rats, penicillin model", "result": "decrease in the amplitude and frequency of HAED"}, {"measurement": "prevention / reduction of development of a seizure", "setting": "[6]; 250 mg/kg oral administration, corazol model", "result": "best results in reducing the development of a seizure; also recorded: complete prevention of seizures in some cases"}, {"measurement": "intensity and duration of seizures", "setting": "[6]; 25 and 100 mg/kg intraperitoneally and 100 and 200 mg/kg orally, corazol model", "result": "decrease in the intensity and duration of seizures"}, {"measurement": "effect on development of a seizure relative to 250 mg/kg oral", "setting": "[6]; 100 and 200 mg/kg oral, corazol model", "result": "slightly less pronounced"}, {"measurement": "deaths", "setting": "[6]; all dosages, corazol model", "result": "completely prevents deaths"}, {"measurement": "likelihood of recurrence of seizures", "setting": "[6]; all dosages, corazol model", "result": "greatly reduces the likelihood of recurrence of seizures"}, {"measurement": "duration and intensity of seizures", "setting": "[6]; corazol 80 mg/kg sc, oral and intravenous (so in the source) ways of administration, all doses", "result": "dose-dependent decrease in the duration and intensity of seizures"}]}
{"smiles": "CCC1(C)CC(=O)NC1=O", "note": "(stereo not drawn) [ethosuximide]", "values": [{"measurement": "LD50", "setting": "mice [2]; mice, oral administration", "result": 1530, "unit": "mg/kg"}]}
{"smiles": "NCC1(CC(=O)O)CCCCC1", "note": "[gabapentinum]", "values": [{"measurement": "LD50", "setting": "rats [7]", "result": "> 300", "unit": "mg/kg"}, {"measurement": "LD50", "setting": "rats [8]", "result": "> 5000", "unit": "mg/kg"}, {"measurement": "LD50", "setting": "mice [9]", "result": "1000 to 2000", "unit": "mg/kg"}, {"measurement": "LD50", "setting": "mice [2]; mice, oral administration", "result": "> 5000", "unit": "mg/kg"}]}
{"smiles": "Nc1nnc(-c2cccc(Cl)c2Cl)c(N)n1", "note": "[lamotrigine]", "values": [{"measurement": "LD50", "setting": "mice [2]; mouse, in vivo, po", "result": 269, "unit": "mg/kg"}]}
{"smiles": "CC[C@@H](C(N)=O)N1CCCC1=O", "note": "[levetiracetam]", "values": [{"measurement": "LD50", "setting": "mice [2]; mice, oral administration", "result": "> 5000", "unit": "mg/kg"}]}
{"smiles": "CCC1(c2ccccc2)C(=O)NC(=O)NC1=O", "note": "[phenobarbital]", "values": [{"measurement": "LD50", "setting": "rats [8]", "result": 163, "unit": "mg/kg"}]}
{"smiles": "O=C1N=C([O-])NC1(c1ccccc1)c1ccccc1.[Na+]", "note": "[sodium phenytoin]", "values": [{"measurement": "LD50", "setting": "mice [2]; mice, oral administration", "result": 165, "unit": "mg/kg"}]}
{"smiles": "CCCC(CCC)C(=O)[O-].[Na+]", "note": "[sodium valproate]", "values": [{"measurement": "LD50", "setting": "mice [1]", "result": 470, "unit": "mg/kg"}, {"measurement": "LD50", "setting": "mice [2]; mice, oral administration", "result": 977, "unit": "mg/kg"}]}
{"smiles": "CC1(C)O[C@@H]2[C@@H](CO[C@@]3(COS(N)(=O)=O)OC(C)(C)O[C@@H]23)O1", "note": "[topiramate]", "values": [{"measurement": "LD50", "setting": "rats [8]", "result": 3570, "unit": "mg/kg"}]}
{"smiles": "NS(=O)(=O)Cc1noc2ccccc12", "note": "[zonisamide]", "values": [{"measurement": "LD50", "setting": "mice [1]", "result": 699, "unit": "mg/kg"}, {"measurement": "LD50", "setting": "mice [2]; mice, oral administration", "result": 1829, "unit": "mg/kg"}]}
